# According to PubChem BioAssay (NCI):
#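 Where inhibition never reached the appropriate level, the endpoint shown equals the highest concentration tested. Otherwise, values were interpolated linearly from a five-concentration, 48-hour dose response in 96-well plates. TGI marks complete inhibition of growth.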
# Tests used:
# Experiment in all cases: inhibition of tumour cell growth, NCI panel, 48 h
# MCF7 breast = tested on: MCF7 breast
# HT29 colon = tested on: HT29 colon
# SK-MEL-28 melanoma = tested on: SK-MEL-28 melanoma
# KM12 colon = tested on: KM12 colon
# MDA-MB-435 = tested on: MDA-MB-435
# SN12C renal = tested on: SN12C renal
# HCC-2998 colon = tested on: HCC-2998 colon
# SF-295 CNS = tested on: SF-295 CNS
# NCI-H23 lung = tested on: NCI-H23 lung
# HOP-62 NSCLC = tested on: HOP-62 NSCLC
# HCT-116 colon = tested on: HCT-116 colon
# COLO 205 colon = tested on: COLO 205 colon
# EKVX NSCLC = tested on: EKVX NSCLC
# SR leukemia = tested on: SR leukemia
# HS 578T breast = tested on: HS 578T breast
# SK-MEL-5 melanoma = tested on: SK-MEL-5 melanoma
# NCI-H226 lung = tested on: NCI-H226 lung
# HL-60(TB) leukemia = tested on: HL-60(TB) leukemia
# SK-MEL-2 melanoma = tested on: SK-MEL-2 melanoma
# A498 renal = tested on: A498 renal
# SW-620 colon = tested on: SW-620 colon
# LOX IMVI melanoma = tested on: LOX IMVI melanoma
# CCRF-CEM leukemia = tested on: CCRF-CEM leukemia
# OVCAR-8 ovarian = tested on: OVCAR-8 ovarian
# SK-OV-3 ovarian = tested on: SK-OV-3 ovarian
# SNB-75 CNS = tested on: SNB-75 CNS
# MOLT-4 leukemia = tested on: MOLT-4 leukemia
# M14 melanoma = tested on: M14 melanoma
# PC-3 prostate = tested on: PC-3 prostate
# ACHN renal = tested on: ACHN renal
# UO-31 renal = tested on: UO-31 renal
# HOP-92 NSCLC = tested on: HOP-92 NSCLC
# A549 NSCLC = tested on: A549 NSCLC
# CAKI-1 renal = tested on: CAKI-1 renal
# NCI-H460 lung = tested on: NCI-H460 lung
# RPMI-8226 leukemia = tested on: RPMI-8226 leukemia
# K-562 leukemia = tested on: K-562 leukemia
# MDA-N = tested on: MDA-N
# UACC-257 melanoma = tested on: UACC-257 melanoma
# MDA-MB-231 breast = tested on: MDA-MB-231 breast
# 786-0 renal = tested on: 786-0 renal
# MALME-3M melanoma = tested on: MALME-3M melanoma
# UACC-62 melanoma = tested on: UACC-62 melanoma
# DU-145 prostate = tested on: DU-145 prostate
# NCI-H522 lung = tested on: NCI-H522 lung
# U251 CNS = tested on: U251 CNS
# SF-268 CNS = tested on: SF-268 CNS
# IGROV1 ovarian = tested on: IGROV1 ovarian
# BT-549 breast = tested on: BT-549 breast
# OVCAR-4 ovarian = tested on: OVCAR-4 ovarian
# SNB-19 CNS = tested on: SNB-19 CNS
# NCI/ADR-RES ovarian = tested on: NCI/ADR-RES ovarian
# OVCAR-3 ovarian = tested on: OVCAR-3 ovarian
# OVCAR-5 ovarian = tested on: OVCAR-5 ovarian
# TK-10 renal = tested on: TK-10 renal
# SF-539 CNS = tested on: SF-539 CNS
# RXF 393 renal = tested on: RXF 393 renal
# HCT-15 colon = tested on: HCT-15 colon
structure (smiles),measurement,setting,value
CCOP(=O)(OCC)/C(C#N)=C/c1coc2cc(C)cc(C)c2c1=O,TGI,MCF7 breast,> 100 µM
same,TGI,HT29 colon,> 100 µM
same,TGI,SK-MEL-28 melanoma,> 100 µM
same,TGI,KM12 colon,> 100 µM
same,TGI,MDA-MB-435,> 100 µM
same,TGI,SN12C renal,> 100 µM
same,TGI,HCC-2998 colon,> 100 µM
same,TGI,SF-295 CNS,> 100 µM
same,TGI,NCI-H23 lung,> 100 µM
same,TGI,HOP-62 NSCLC,> 100 µM
same,TGI,HCT-116 colon,> 100 µM
same,TGI,COLO 205 colon,> 100 µM
same,TGI,EKVX NSCLC,> 100 µM
same,TGI,SR leukemia,> 100 µM
same,TGI,HS 578T breast,> 100 µM
same,TGI,SK-MEL-5 melanoma,> 100 µM
same,TGI,NCI-H226 lung,> 100 µM
same,TGI,HL-60(TB) leukemia,> 100 µM
same,TGI,SK-MEL-2 melanoma,> 100 µM
same,TGI,A498 renal,> 100 µM
same,TGI,SW-620 colon,> 100 µM
same,TGI,LOX IMVI melanoma,> 100 µM
same,TGI,CCRF-CEM leukemia,> 100 µM
same,TGI,OVCAR-8 ovarian,> 100 µM
same,TGI,SK-OV-3 ovarian,> 100 µM
same,TGI,SNB-75 CNS,> 100 µM
same,TGI,MOLT-4 leukemia,> 100 µM
same,TGI,M14 melanoma,> 100 µM
same,TGI,PC-3 prostate,> 100 µM
same,TGI,ACHN renal,> 100 µM
same,TGI,UO-31 renal,> 100 µM
same,TGI,HOP-92 NSCLC,> 100 µM
same,TGI,A549 NSCLC,> 100 µM
same,TGI,CAKI-1 renal,> 100 µM
same,TGI,NCI-H460 lung,> 100 µM
same,TGI,RPMI-8226 leukemia,> 100 µM
same,TGI,K-562 leukemia,> 100 µM
same,TGI,MDA-N,> 100 µM
same,TGI,UACC-257 melanoma,> 100 µM
same,TGI,MDA-MB-231 breast,> 100 µM
same,TGI,786-0 renal,> 100 µM
same,TGI,MALME-3M melanoma,> 100 µM
same,TGI,UACC-62 melanoma,> 100 µM
same,TGI,DU-145 prostate,> 100 µM
same,TGI,NCI-H522 lung,> 100 µM
same,TGI,U251 CNS,> 100 µM
same,TGI,SF-268 CNS,> 100 µM
same,TGI,IGROV1 ovarian,> 100 µM
same,TGI,BT-549 breast,> 100 µM
same,TGI,OVCAR-4 ovarian,> 100 µM
same,TGI,SNB-19 CNS,> 100 µM
same,TGI,NCI/ADR-RES ovarian,> 100 µM
same,TGI,OVCAR-3 ovarian,> 100 µM
same,TGI,OVCAR-5 ovarian,> 100 µM
COc1ccc([C@H]2[C@H](C)C3=Nc4ccccc4CN32)cc1,TGI,MCF7 breast,> 100 µM
same,TGI,HT29 colon,> 100 µM
same,TGI,SK-MEL-28 melanoma,> 100 µM
same,TGI,KM12 colon,> 100 µM
same,TGI,MDA-MB-435,> 100 µM
same,TGI,SN12C renal,> 100 µM
same,TGI,HCC-2998 colon,> 100 µM
same,TGI,SF-295 CNS,> 100 µM
same,TGI,NCI-H23 lung,> 100 µM
same,TGI,HOP-62 NSCLC,> 100 µM
same,TGI,HCT-116 colon,> 100 µM
same,TGI,COLO 205 colon,> 100 µM
same,TGI,EKVX NSCLC,> 100 µM
same,TGI,SR leukemia,> 100 µM
same,TGI,HS 578T breast,> 100 µM
same,TGI,SK-MEL-5 melanoma,> 100 µM
same,TGI,TK-10 renal,> 100 µM
same,TGI,NCI-H226 lung,> 100 µM
same,TGI,HL-60(TB) leukemia,> 100 µM
same,TGI,SK-MEL-2 melanoma,> 100 µM
same,TGI,A498 renal,> 100 µM
same,TGI,SF-539 CNS,> 100 µM
same,TGI,SW-620 colon,> 100 µM
same,TGI,LOX IMVI melanoma,> 100 µM
same,TGI,RXF 393 renal,> 100 µM
same,TGI,OVCAR-8 ovarian,> 100 µM
same,TGI,MOLT-4 leukemia,> 100 µM
same,TGI,M14 melanoma,> 100 µM
same,TGI,PC-3 prostate,> 100 µM
same,TGI,ACHN renal,> 100 µM
same,TGI,UO-31 renal,> 100 µM
same,TGI,HOP-92 NSCLC,> 100 µM
same,TGI,A549 NSCLC,> 100 µM
same,TGI,CAKI-1 renal,> 100 µM
same,TGI,NCI-H460 lung,> 100 µM
same,TGI,RPMI-8226 leukemia,> 100 µM
same,TGI,K-562 leukemia,> 100 µM
same,TGI,MDA-N,47.2 µM
same,TGI,UACC-257 melanoma,> 100 µM
same,TGI,MDA-MB-231 breast,> 100 µM
same,TGI,786-0 renal,> 100 µM
same,TGI,MALME-3M melanoma,> 100 µM
same,TGI,UACC-62 melanoma,> 100 µM
same,TGI,DU-145 prostate,> 100 µM
same,TGI,NCI-H522 lung,> 100 µM
same,TGI,U251 CNS,> 100 µM
same,TGI,SF-268 CNS,> 100 µM
same,TGI,IGROV1 ovarian,> 100 µM
same,TGI,BT-549 breast,> 100 µM
same,TGI,OVCAR-4 ovarian,> 100 µM
same,TGI,SNB-19 CNS,> 100 µM
same,TGI,NCI/ADR-RES ovarian,> 100 µM
same,TGI,OVCAR-3 ovarian,> 100 µM
same,TGI,OVCAR-5 ovarian,> 100 µM
same,TGI,HCT-15 colon,> 100 µM
CCOC(=O)N1CCN(c2ccc3ccc(N)nc3n2)CC1,TGI,MCF7 breast,> 100 µM
same,TGI,HT29 colon,> 100 µM
same,TGI,SK-MEL-28 melanoma,> 100 µM
same,TGI,KM12 colon,> 100 µM
same,TGI,MDA-MB-435,> 100 µM
same,TGI,SN12C renal,> 100 µM
same,TGI,HCC-2998 colon,> 100 µM
same,TGI,SF-295 CNS,> 100 µM
same,TGI,NCI-H23 lung,> 100 µM
same,TGI,HOP-62 NSCLC,> 100 µM
same,TGI,HCT-116 colon,> 100 µM
same,TGI,COLO 205 colon,> 100 µM
same,TGI,EKVX NSCLC,> 100 µM
same,TGI,SR leukemia,> 100 µM
same,TGI,HS 578T breast,> 100 µM
same,TGI,TK-10 renal,> 100 µM
same,TGI,NCI-H226 lung,> 100 µM
same,TGI,HL-60(TB) leukemia,> 100 µM
same,TGI,SK-MEL-2 melanoma,> 100 µM
same,TGI,SF-539 CNS,> 100 µM
same,TGI,SW-620 colon,> 100 µM
same,TGI,LOX IMVI melanoma,> 100 µM
same,TGI,CCRF-CEM leukemia,> 100 µM
same,TGI,OVCAR-8 ovarian,> 100 µM
same,TGI,SK-OV-3 ovarian,> 100 µM
same,TGI,SNB-75 CNS,> 100 µM
same,TGI,MOLT-4 leukemia,> 100 µM
same,TGI,M14 melanoma,> 100 µM
same,TGI,PC-3 prostate,> 100 µM
same,TGI,ACHN renal,> 100 µM
same,TGI,UO-31 renal,> 100 µM
same,TGI,HOP-92 NSCLC,> 100 µM
same,TGI,A549 NSCLC,> 100 µM
same,TGI,CAKI-1 renal,> 100 µM
same,TGI,NCI-H460 lung,> 100 µM
same,TGI,RPMI-8226 leukemia,> 100 µM
same,TGI,K-562 leukemia,> 100 µM
same,TGI,MDA-N,> 100 µM
same,TGI,UACC-257 melanoma,> 100 µM
same,TGI,MDA-MB-231 breast,> 100 µM
same,TGI,786-0 renal,> 100 µM
same,TGI,MALME-3M melanoma,> 100 µM
same,TGI,UACC-62 melanoma,> 100 µM
same,TGI,DU-145 prostate,> 100 µM
same,TGI,NCI-H522 lung,> 100 µM
same,TGI,U251 CNS,> 100 µM
same,TGI,SF-268 CNS,> 100 µM
same,TGI,IGROV1 ovarian,> 100 µM
same,TGI,BT-549 breast,> 100 µM
same,TGI,OVCAR-4 ovarian,> 100 µM
same,TGI,SNB-19 CNS,> 100 µM
same,TGI,NCI/ADR-RES ovarian,> 100 µM
same,TGI,OVCAR-3 ovarian,> 100 µM
same,TGI,OVCAR-5 ovarian,> 100 µM
same,TGI,HCT-15 colon,> 100 µM
